Laboratory results reported in patent US20070254864A1, “CHROMIUM COMPLEXES” (Mandrillus Pharma, LLC, priority 2006, published 2007).

Tested on: db/db mice (BKS.Cg-m+/+Lepr^db/J)
Assay: In vivo efficacy: control of body mass in db/db mice
Settings: five week old at start, ad libitum p.o. in drinking water (5 mM chromium, pH 5.8), on average 1 mg/kg/day, over 22 weeks, control mice receiving water reached 43 g
Protocol: The mice were otherwise fed normal chow. Over the course of 22 weeks, the mice consumed on average 1 mg/kg/day of the compound. Mice on treatment reached an average mass of 37 g, while control mice receiving water reached an average mass of 43 g.

Work on Chromium Quinolinate [Example 1] yielded an average mass reached of 37 g.
